Tested on: bleomycin rat model of pulmonary fibrosis
Test: Bleomycin rat model of pulmonary fibrosis, day 14, dexamethasone and/or test compound
Assay type: in vivo
Conditions: Dex 2.0 mg/kg every other day, test compound 40 mg/kg twice a day
Description: Rats were intubated with saline or 1 unit of bleomycin. After twenty four hours, rats were weighed and dosed with saline or 2.0 mg/kg of dexamethasone every other day and 1% methyl cellulose (MC) or 40 mg/kg of a test compound twice a day. On day 14, 1-3 hours after dosing, rat were sacrificed and lungs were inflated and collected for analysis.
The primary end points of the analysis were the total hydroxyproline concentration per lung and lung capacity. The secondary end point was the body weight.
The statistical analysis was done using one-way ANOVA with Bonferroni's Multiple Comparison Test.

`C[C@@H]1C[C@H]2[C@@H]3CCC4=CC(=O)C=C[C@]4(C)[C@@]3(F)[C@@H](O)C[C@]2(C)[C@@]1(O)C(=O)CO` [dexamethasone] was tested, and the “bleomycin-induced body weight loss” value was “no effect”.

From patent US20040038856A1, “Treatment of fibroproliferative disorders using TGF-beta inhibitors” (priority 2002, published 2004)
